HELM strings list units from the 5' end as sugar, base in round brackets, then linkage (d deoxyribose, r ribose, m 2'-O-methyl, p phosphodiester). Strings are as the collection lists them; they lack the last nucleoside at the 3' end of the tested compound. [moe] = 2'-O-(2-methoxyethyl) (MOE); [sp] = phosphorothioate linkage; [m5C] = 5-methylcytosine

For this data set, the target named is ATXN2. The data set can be described thus: mouse, dose not given. The settings on record: ASO.
As to “RNA1{[moe](G)[sp].[moe](T)p.[moe](A)p.[moe]([m5C])p.[moe](T)p.d(T)[sp].d(T)[sp].d(T)[sp].d([m5C])[sp].d(T)[sp].d([m5C])[sp].d(A)[sp].d(T)[sp].d(G)[sp].d(T)[sp].[moe](G)p.[moe]([m5C])p.[moe](G)[sp].[moe](G)}$$$$ (last 3' nucleoside missing)”, the 3 h FOB score was determined as 1 score 0-7.
The same measure for “RNA1{[moe](G)[sp].[moe](T)p.[moe](A)p.[moe]([m5C])p.[moe](T)p.d(T)[sp].d([m5C])[sp].d(A)[sp].d([m5C])[sp].d(A)[sp].d(T)[sp].d(T)[sp].d(T)[sp].d(G)[sp].d(G)[sp].[moe](A)p.[moe](G)p.[moe]([m5C])[sp].[moe]([m5C])}$$$$ (last 3' nucleoside missing)”: 1 score 0-7; for “RNA1{[moe](G)[sp].[moe](T)p.[moe](G)p.[moe](A)p.[moe](G)p.d(T)[sp].d(T)[sp].d([m5C])[sp].d(A)[sp].d([m5C])[sp].d([m5C])[sp].d(T)[sp].d(G)[sp].d([m5C])[sp].d(A)[sp].[moe](T)p.[moe]([m5C])p.[moe]([m5C])[sp].[moe]([m5C])}$$$$ (last 3' nucleoside missing)”: 2.25 score 0-7.
The same measure for “RNA1{[moe](G)[sp].[moe](T)p.[moe](G)p.[moe](A)p.[moe](T)p.[moe](G)p.d(T)[sp].d(T)[sp].d(T)[sp].d([m5C])[sp].d(A)[sp].d(T)[sp].d(T)[sp].d(G)[sp].d(G)[sp].d(G)[sp].[moe](T)p.[moe](T)[sp].[moe](T)}$$$$ (last 3' nucleoside missing)”: 4 score 0-7; for “RNA1{[moe](G)[sp].[moe](T)p.[moe](G)p.[moe](A)p.[moe](T)p.d(G)[sp].d(T)[sp].d(T)[sp].d(T)[sp].d([m5C])[sp].d(A)[sp].d(T)[sp].d(T)[sp].d(G)[sp].d(G)[sp].[moe](G)p.[moe](T)p.[moe](T)[sp].[moe](T)}$$$$ (last 3' nucleoside missing)”: 4.5 score 0-7.
The same measure for “RNA1{[moe](G)[sp].[moe](T)p.[moe](G)p.[moe](A)p.d(T)[sp].d(G)[sp].d(T)[sp].d(T)[sp].d(T)[sp].d([m5C])[sp].d(A)[sp].d(T)[sp].d(T)[sp].d(G)[sp].[moe](G)p.[moe](G)p.[moe](T)p.[moe](T)[sp].[moe](T)}$$$$ (last 3' nucleoside missing)”: 6 score 0-7.
“RNA1{[moe](G)[sp].[moe](T)p.[moe](G)p.[moe](G)p.[moe](T)[sp].d(G)[sp].d(T)[sp].d(G)[sp].d([m5C])[sp].d(G)[sp].d([m5C])[sp].d(A)[sp].d(T)[sp].[moe](G)p.[moe](T)p.[moe](A)[sp].[moe](G)}$$$$ (last 3' nucleoside missing)” yielded a 3 h FOB score of 6.75 score 0-7.
The figure for “RNA1{[moe](G)[sp].[moe](T)p.[moe](G)p.[moe](G)p.[moe](T)p.d(G)[sp].d(G)[sp].d(T)[sp].d(G)[sp].d(T)[sp].d(G)[sp].d([m5C])[sp].d(G)[sp].d([m5C])[sp].d(A)[sp].[moe](T)p.[moe](G)p.[moe](T)[sp].[moe](A)}$$$$ (last 3' nucleoside missing)” is 7 score 0-7; for “RNA1{[moe](G)[sp].[moe](T)p.[moe](G)p.[moe](G)p.[moe](T)p.d(G)[sp].d(T)[sp].d(G)[sp].d([m5C])[sp].d(G)[sp].d([m5C])[sp].d(A)[sp].d(T)[sp].d(G)[sp].d(T)[sp].[moe](A)p.[moe](G)p.[moe](A)[sp].[moe]([m5C])}$$$$ (last 3' nucleoside missing)” it is 5.5 score 0-7.
The same measure for “RNA1{[moe](G)[sp].[moe](T)p.[moe](G)p.[moe](G)p.[moe]([m5C])p.d(T)[sp].d(T)[sp].d(T)[sp].d(A)[sp].d(A)[sp].d(A)[sp].d(A)[sp].d(A)[sp].d([m5C])[sp].d(T)[sp].[moe](A)p.[moe](G)p.[moe](G)[sp].[moe](T)}$$$$ (last 3' nucleoside missing)”: 0 score 0-7; for “RNA1{[moe](G)[sp].[moe](T)p.[moe](G)p.[moe](T)p.[moe](T)p.d(G)[sp].d([m5C])[sp].d(A)[sp].d([m5C])[sp].d(A)[sp].d(T)[sp].d(A)[sp].d(G)[sp].d(G)[sp].d(T)[sp].[moe](T)p.[moe](A)p.[moe](G)[sp].[moe](A)}$$$$ (last 3' nucleoside missing)”: 6.5 score 0-7; for “RNA1{[moe](G)[sp].[moe](T)p.[moe](G)p.[moe](T)p.[moe](T)p.d(T)[sp].d(A)[sp].d(A)[sp].d(T)[sp].d(T)[sp].d(T)[sp].d(G)[sp].d(T)[sp].d(A)[sp].d(A)[sp].[moe]([m5C])p.[moe](T)p.[moe](A)[sp].[moe](G)}$$$$ (last 3' nucleoside missing)”: 4 score 0-7.
Turning to “RNA1{[moe](G)[sp].[moe](T)p.[moe](G)p.[moe](T)p.[moe](T)p.d(T)[sp].d(G)[sp].d(G)[sp].d(G)[sp].d(A)[sp].d(T)[sp].d(G)[sp].d([m5C])[sp].d(T)[sp].d(T)[sp].[moe]([m5C])p.[moe](A)p.[moe](G)[sp].[moe](A)}$$$$ (last 3' nucleoside missing)”, the 3 h FOB score was 5.5 score 0-7.
The figure for “RNA1{[moe](G)[sp].[moe](T)p.[moe](G)p.[moe](T)p.[moe](T)p.d([m5C])[sp].d(A)[sp].d(G)[sp].d(T)[sp].d(A)[sp].d(T)[sp].d(A)[sp].d(G)[sp].d(A)[sp].d(T)[sp].[moe](T)p.[moe](A)p.[moe](T)[sp].[moe]([m5C])}$$$$ (last 3' nucleoside missing)” is 3.75 score 0-7; for “RNA1{[moe](G)[sp].[moe](T)p.[moe](G)p.[moe](T)p.[moe](T)p.d([m5C])[sp].d(A)[sp].d(T)[sp].d(G)[sp].d(A)[sp].d([m5C])[sp].d(T)[sp].d(T)[sp].d(T)[sp].d([m5C])[sp].[moe](A)p.[moe](A)p.[moe](G)[sp].[moe](G)}$$$$ (last 3' nucleoside missing)” it is 3.5 score 0-7.
With “RNA1{[moe](G)[sp].[moe](T)p.[moe](T)p.[moe](A)p.[moe]([m5C])[sp].d(T)[sp].d(G)[sp].d(T)[sp].d(T)[sp].d(T)[sp].d([m5C])[sp].d(G)[sp].d(A)[sp].[moe]([m5C])p.[moe]([m5C])p.[moe](T)[sp].[moe]([m5C])}$$$$ (last 3' nucleoside missing)”, the 3 h FOB score was determined as 6 score 0-7.
The figure for “RNA1{[moe](G)[sp].[moe](T)p.[moe](T)p.[moe](A)p.[moe]([m5C])p.[moe](T)p.d(G)[sp].d(T)[sp].d(T)[sp].d(T)[sp].d([m5C])[sp].d(G)[sp].d(A)[sp].d([m5C])[sp].d([m5C])[sp].d(T)[sp].[moe]([m5C])p.[moe](T)[sp].[moe](G)}$$$$ (last 3' nucleoside missing)” is 5 score 0-7.
The figure for “RNA1{[moe](G)[sp].[moe](T)p.[moe](T)p.[moe](A)p.[moe]([m5C])p.d(T)[sp].d(G)[sp].d(T)[sp].d(T)[sp].d(T)[sp].d([m5C])[sp].d(G)[sp].d(A)[sp].d([m5C])[sp].d([m5C])[sp].[moe](T)p.[moe]([m5C])p.[moe](G)[sp].[moe](G)}$$$$ (last 3' nucleoside missing)” is 4.5 score 0-7.
